Data set [1] relates to EC's as compared to SMC's. Particulars: EC's versus SMC's; cited from earlier work.
Data set [2] relates to cells seeded in 96-well microplate. The settings on record: control samples. The protocol:
A potential cytotoxicity study of the electro-grafted coatings is conducted in accordance with the standard ISO 10993-5.
The extraction was performed in triplicate with the culture medium (DMEM) containing fetal calf serum, in sterile, closed, chemically inert containers during 96 h at 37° C.
The extract and its dilutions (50% and 10%) were placed on the cells and left in contact for 24 hours, at least. The cytotoxicity was determined by a vital dye, the neutral red.
The means of determination retained were the general morphology of the cell (qualitative evaluation) and the percentage of cell viability (quantitative evaluation) based on that the absorbance obtain by reading at 540 nm, is proportional to the number of living cells (quantitative analysis).
Positive control: the control was performed for each test with a product which provided a reproducible cytotoxic effect under the conditions of the test: a solution of phenol at 3.2 g/l in culture medium (DMEM). The test complied if the percentage of mortality was about 100%.
The test complied if the percentage of cell viability is 100%.

In the case of `CC(=O)O[C@H]1C(=O)[C@@]2(C)[C@H]([C@H](OC(=O)c3ccccc3)[C@]3(O)C[C@H](OC(=O)[C@H](O)[C@@H](NC(=O)c4ccccc4)c4ccccc4)C(C)=C1C3(C)C)[C@]1(OC(C)=O)CO[C@@H]1C[C@@H]2O` [Paclitaxel], the Threshold toxic concentration result in data set [1] is on record as “comparable or even lower against EC's as compared to SMC's”.

Consider `Oc1ccccc1` [Positive control, phenol], for which, in data set [2], the Death % is 99%, the “Qualitative evaluation (neutral red)” value is on record as “Cells don't” and the Viability % was 1%. Take `CO[C@H]1C[C@@H]2CC[C@@H](C)[C@@](O)(O2)C(=O)C(=O)N2CCCC[C@H]2C(=O)O[C@H]([C@H](C)C[C@@H]2CC[C@@H](O)[C@H](OC)C2)CC(=O)[C@H](C)/C=C(\C)[C@@H](O)[C@@H](OC)C(=O)[C@H](C)C[C@H](C)/C=C/C=C/C=C/1C` [Sirolimus]: the Threshold toxic concentration entry in data set [1] is recorded as “comparable or even lower against EC's as compared to SMC's”.
